# Data reported in patent US7550469B2, “Heterocyclic amide derivatives and their use as dopamine D3 receptor ligands” (Aventis Pharmaceuticals Inc., priority 2001, dated 2009).
# Target: T1, cloned human alpha-1A adrenergic receptors (α1a) (Homo sapiens, UniProt P35348)
# T1 construct: expressed in transfected cells; host or cells: CHO cells, G418-resistant clone, pcDNA3 vector; membrane fragments
# T1 sequence (P35348 1-466): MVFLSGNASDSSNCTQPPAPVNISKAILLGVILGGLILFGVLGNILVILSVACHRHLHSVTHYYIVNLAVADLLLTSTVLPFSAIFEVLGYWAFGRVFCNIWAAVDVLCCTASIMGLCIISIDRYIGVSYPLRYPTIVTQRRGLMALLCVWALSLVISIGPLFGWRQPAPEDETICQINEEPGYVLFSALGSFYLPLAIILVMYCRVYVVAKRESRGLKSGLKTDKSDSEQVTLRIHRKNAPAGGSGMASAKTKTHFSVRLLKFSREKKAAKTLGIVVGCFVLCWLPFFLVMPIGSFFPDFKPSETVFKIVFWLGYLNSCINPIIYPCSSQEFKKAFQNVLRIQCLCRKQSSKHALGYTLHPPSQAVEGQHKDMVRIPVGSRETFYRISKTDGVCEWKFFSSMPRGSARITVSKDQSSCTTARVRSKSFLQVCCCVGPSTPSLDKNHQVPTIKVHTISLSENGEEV
# Test: [3H]Prazosin binding to cloned human alpha-1A adrenergic receptors expressed in CHO cells
# Conditions: Inh @ 1 uM
# Description: ^3H]PRAZOSIN BINDING TO CLONED HUMAN ALPHA-1A ADRENERGIC RECEPTORS (α1a) EXPRESSED IN CHINESE HAMSTER OVARY CELLS (CHO)
# Purpose: This in vitro assay is designed as a screen to identify compounds displaying a affinity for the human α1a adrenoceptor subtype expressed in the membrane fragments of CHO cells. The assay measures the ability of the test compounds to displace [^3H] prazosin from α1a sites. • The identification of multiple vascular α1-addrenoceptors (α1a, α1b, α1d) in vitro has provided impetus to define the role(s) of these subtypes in cardiovascular regulation in vivo (Vargas and Gorman, 1995). […] Prazosin is a potent antagonist of the human α1a-adrenoceptor subtype, which has been cloned and is expressed in the membrane fragments of CHO cells. hα1a Receptor: The cloning of the human α1a cDNA was accomplished first by screening a human prostate cDNA library (Clontech), from which a portion of the coding region was obtained. This DNA fragment was then used to screen a human leukocyte genomic library (Clontech), and the rest of the coding sequence was obtained. Later these two fragments were spliced together. The entire coding sequence was then fully sequenced including matching PCR sequence with original genomic coding sequence, thus ensuring splice sites were joined correctly (Schwinn et al., 1995). Once sequenced, the gene was subcloned into the expression vector pcDNA3 (Invitrogen). Plasmid DNA was then used for transfection into CHO cells and G418 resistant clones were isolated. A clone expressing high levels of the hα1a receptor (as determined by mRNA and receptor binding data) was chosen and pharmacologically characterized. Culture Media: Media Ingredients for Adherent α1a expressing CHO Culture: • A. HAM's F-12 (Cellgro) • B. 10% 0.2 micron filtered Fetal Bovine Serum (FBS)(Cellgro) • C. 1% 0.2 micron filtered Penicillin-Streptomycin (Celigro) • D. G418 0.2 micron filtered (Geneticin 400 μg/ml)(Cellgro) • Cells are cultured using established methods and procedures in either 150×25 mm culture plates (scale up to 100 plates) or a combination of these plates and 70 roller bottles. One culturing/harvest cycle typically requires 2 weeks and yields between 100-400 mg protein. Plates or bottles are incubated at 37° C.+5% CO2. Storage: Cells are harvested by mechanical scraping, washed using PBS, collected in 250 ml Corning polypropylene centrifuge tubes, spun down (1500RPM) and resuspended in dH2O 10% DMSO (final volume per harvest is approximately 50 ml). Protein determination is made using the Biorad DC Assay Kit. Finally, the appropriate volume is aliquoted into a 2 ml Corning Cryovial (10 mg/1-1.5 ml) which is stored at −80° C. Current Lot Data:
# Assay Requirement: 0.5 cryovials per 96 well plate (assay volume=200 μl/well) [^3H]-Ligand: [7-methoxy-^3H]-Prazosin: 1.0 nM (NEN, NET-823) • 70-87 Ci/mmol Materials: Phentolamine mesylate (Research Biochemicals Int. #P-131) • 96 well flat bottom plates (Beckman) • Unifilter GF/B Plate (Packard) • Polyethylenimine (Sigma #P-3134) • TomTec or Packard Filtermate 196 Cell Harvesters • Packard TopCount Scintillation Counter Buffers: A: 50 mM Tris HCl; 0.1% ascorbate, pH 7.7 (incubation buffer) • B: 50 mM Tris HCl; pH 7.7 (wash buffer) Procedure: Assay additions are as follows (in the order indicated): • Total Binding=50 μl buffer A+50 μl [^3H]prazosin+100 μl membrane • Nonsp. Bd.=50 μl 10 μM phentolamine+50 μl [^3H]prazosin+100 μl membrane • Test Cpd.=50 μl compound+50 μl [^3H]prazosin+100 μl membrane • Compounds to be evaluated are weighed out to yield a 10 mM stock solution in DMSO in a 24 well polystyrene plate. This is diluted to a 0.5 mM stock in dH2O. Serial dilutions in Buffer A are made from which 50 μl additions to the plate are made in duplicate in order to achieve the final concentrations desired. Typically, one 96 well plate is used to evaluate 11 compounds at 4 concentrations (10^−6-10^−9 M) in duplicate. […]
row,halpha 1 % I h = human [% Inh @ 1 uM],Structure (SMILES)
1,27,O=C(NCCCCN1CCN(c2csc3cc(C(F)(F)F)ccc23)CC1)c1ccc(Cl)cc1 [compound 815548]
2,40,COc1ccccc1C(=O)NCCCCN1CCN(c2csc3cc(C(F)(F)F)ccc23)CC1 [compound 815554]
3,24,O=C(NCCCCN1CCN(c2csc3cc(C(F)(F)F)ccc23)CC1)c1ccc(C(F)(F)F)cc1 [compound 815555]

# Same assay, conditions: Inh @ 10 uM
row,halpha 1 % I h = human,Structure (SMILES)
1,18.7% @ 10 uM,O=C(NCCCCN1CCN(c2csc3cc(C(F)(F)F)ccc23)CC1)c1ccc(-c2ccccc2)cc1 [815547A]
2,48% Inh @ 10 uM,CCOc1ccc(C(=O)NCCCCN2CCN(c3csc4cc(C(F)(F)F)ccc34)CC2)cc1 [compound 815541]
3,25% Inh @ 10 uM,CCCCOc1ccc(C(=O)NCCCCN2CCN(c3csc4cc(C(F)(F)F)ccc34)CC2)cc1 [compound 815545]

# Same assay, conditions: h = human; piperazines (n = 1) vs homopiperazines (n = 2); read-out: h-α1 Ki
row,Ki [nM],Structure (SMILES)
1,123,O=C(NCCCCN1CCCN(c2csc3cc(F)ccc23)CC1)c1ccc2ccccc2c1 [822223G]
2,82.5,O=C(NCCCCN1CCCN(c2csc3cc(F)ccc23)CC1)c1cc2ccccc2s1 [822224G]
3,5.6,O=C(NCCCCN1CCCN(c2csc3cc(F)ccc23)CC1)c1ccco1 [S981843]
4,122,O=C(NCCCCN1CCCN(c2csc3cc(F)ccc23)CC1)c1ccc(OC(F)(F)F)cc1 [compound 822152]
5,41.8,O=C(NCCCCN1CCCN(c2csc3cc(F)ccc23)CC1)c1cccc(F)c1 [compound 822154]
6,27.4,COc1ccccc1C(=O)NCCCCN1CCCN(c2csc3cc(F)ccc23)CC1 [compound 822157]
7,209,CC(C)(C)c1ccc(C(=O)NCCCCN2CCCN(c3csc4cc(F)ccc34)CC2)cc1 [compound 822198]

# Same assay, conditions: human α-1; 6-fluoro vs 6-trifluoromethyl benzo[b]thiophene pairs; read-out: halpha 1 Ki (nM) h = human
row,Structure (SMILES),Ki [nM]
1,O=C(NCCCCN1CCN(c2csc3cc(C(F)(F)F)ccc23)CC1)c1cc2ccccc2s1 [814238A],78.3
2,O=C(NCCCCN1CCN(c2csc3cc(C(F)(F)F)ccc23)CC1)c1ccc(F)cc1F [compound 815542],68
3,O=C(NCCCCN1CCN(c2csc3cc(C(F)(F)F)ccc23)CC1)c1ccc2c(c1)OCO2 [compound 815544],62
4,O=C(NCCCCN1CCN(c2csc3cc(C(F)(F)F)ccc23)CC1)c1sc2ccccc2c1Cl [compound 815546],59
5,O=C(NCCCCN1CCN(c2csc3cc(C(F)(F)F)ccc23)CC1)c1ccco1 [compound 815556],12
6,O=C(NCCCCN1CCN(c2csc3cc(C(F)(F)F)ccc23)CC1)c1c(F)cccc1F [compound 815557],72

# Now from value to molecule:
row,Ki [nM],Structure (SMILES)
1,1110,CCOc1ccc(C(=O)NCCCCN2CCN(c3csc4cc(C(F)(F)F)ccc34)CC2)cc1 [compound 815541]
2,80,O=C(NCCCCN1CCN(c2csc3cc(C(F)(F)F)ccc23)CC1)c1ccc(Br)cc1 [compound 815551]
